Assay [1] concerns HT-29. The assay is described as follows: Cell cycle arrest in human HT-29 cells assessed as accumulation at sub-G1 phase at 0.25 uM after 24 hrs by flow cytometry. The format is functional. (In flow cytometry, cells or beads pass a laser one at a time.)
The subject of assay [2] is HT-29. Kind of assay: Cell cycle arrest in human HT-29 cells assessed as accumulation at sub-G1 phase at 0.05 uM after 24 hrs by flow cytometry. It counts as functional.
Assay [3] deals with HT-29. Kind of assay: Cell cycle arrest in human HT-29 cells assessed as accumulation at sub-G1 phase at 2.5 uM after 24 hrs by flow cytometry. It counts as functional.
Assay [4] has as its system HT-29. Kind of assay: Antiproliferative activity against human HT-29 cells after 3 days by MTT assay. The format is functional, cell-based. As to conditions: HT-29, 72 h.
Assay [5] relates to HT-29. Kind of assay: Cell cycle arrest in human HT-29 cells assessed as accumulation at sub-G1 phase at 0.05 uM after 48 hrs by flow cytometry. The format is functional.
Assay [6] deals with HT-29. The assay is described as follows: Cell cycle arrest in human HT-29 cells assessed as accumulation at sub-G1 phase at 0.5 uM after 48 hrs by flow cytometry. The format is functional.
The test system of assay [7] is HT-29. The assay is described as follows: Cell cycle arrest in human HT-29 cells assessed as accumulation at sub-G1 phase at 0.1 uM after 24 hrs by flow cytometry. The format is functional.
Another assay concerns HeLa. Kind of assay: Antiproliferative activity against human HeLa cells after 3 days by MTT assay. The format is functional, cell-based. Particulars: 72 h. For orientation: Tetrazolium assays rely on reduction of a dye to a coloured formazan, in cell work by metabolically active cells.
In assay [8] the test system is HT-29. Kind of assay: Cell cycle arrest in human HT-29 cells assessed as accumulation at sub-G1 phase at 0.1 uM after 48 hrs by flow cytometry. It counts as functional.
In assay [9] the test system is HT-29. Kind of assay: Cell cycle arrest in human HT-29 cells assessed as accumulation at sub-G1 phase at 0.5 uM after 24 hrs by flow cytometry. The format is functional.
Assay [10] deals with HT-29. The assay is described as follows: Cell cycle arrest in human HT-29 cells assessed as accumulation at sub-G1 phase at 1 uM after 24 hrs by flow cytometry. It counts as functional.
Another assay has as its system A549. The assay is described as follows: Antiproliferative activity against human A549 cells after 3 days by MTT assay. The format is functional, cell-based. Particulars: A549, 72 h.
In assay [11] the test system is HT-29. The assay is described as follows: Cell cycle arrest in human HT-29 cells assessed as accumulation at sub-G1 phase at 1 uM after 48 hrs by flow cytometry. It counts as functional.
Assay [12] concerns HT-29. Kind of assay: Cell cycle arrest in human HT-29 cells assessed as accumulation at sub-G1 phase at 2.5 uM after 48 hrs by flow cytometry. It counts as functional.
In assay [13] the test system is HT-29. Kind of assay: Cell cycle arrest in human HT-29 cells assessed as accumulation at sub-G1 phase at 0.25 uM after 48 hrs by flow cytometry. It counts as functional.

Each structure is given as a SMILES string.

As a reminder, the IC50 is the concentration at which inhibition is half-maximal. Read a high IC50 as weaker potency.

`Nc1ccc2cc3ccccc3nc2c1CO`: the Activity with HT-29 [1] is listed as 0.7%; with HT-29 [2], 3.2%; in the assay on HT-29 [3] it was 13.7%; with HT-29 [5] it was 0.7%; in the assay with HT-29 [6], 26.3%; with HT-29 [7] it was 0.1%. In addition, the Activity amounted to 4.7% with HT-29 [8]; 9.7% in the assay on HT-29 [9]; 5.2% with HT-29 [10]; 31.7% in the assay with HT-29 [11]; 23.4% in the assay with HT-29 [12]; 18.7% in the assay with HT-29 [13]. Moreover, the IC50 with HT-29 [4] came to 34 nM; in the assay on HeLa, 70 nM; with A549 it was 60 nM.
As to `Nc1ccc2cc3ccc(I)cc3nc2c1CO`, the Activity in the assay on HT-29 [1] is reported as 6.3%; with HT-29 [2], 3.9%; in the assay with HT-29 [3] it was 8.9%; with HT-29 [5] it was 2.14%; with HT-29 [6] it was 19.3%; with HT-29 [7], 1.4%. The Activity with HT-29 [8] is on record as 22.6%; in the assay with HT-29 [9], 1.7%; in the assay with HT-29 [10], 8.7%; in the assay on HT-29 [11] it was 14.8%; in the assay with HT-29 [12], 12%; in the assay on HT-29 [13] it was 23.7%. Further, the results for the IC50 in the assay with HT-29 [4], in the assay on HeLa and in the assay on A549 were 70 nM, 70 nM and 130 nM, respectively.

These data come from ChEMBL document CHEMBL1153811, “Unusual cellular uptake of cytotoxic 4-hydroxymethyl-3-aminoacridine” (Eur J Med Chem, 2009).
